Experimental data taken from patent US10221167B2, “Hydroxyalkylamine- and hydroxycycloalkylamine-substituted diamine-arylsulfonamide compounds with selective activity in voltage-gated sodium channels” (Merck Sharp & Dohme Corp., priority 2015, dated 2019).
pIC50: −log10 of the molar value.

Tests used:
[1] = molecular target: T1, human Nav1.7 channels stably expressed in HEK 293 cells (Homo sapiens, UniProt Q15858); experiment: IonWorks Quattro automated patch-clamp, state-dependent inhibition of Nav1.7; type: cell-based; conditions: inactivated state block, double-pulse protocol, holding -100 mV, read-out: potency for the Nav 1.7 sodium ion channel (as measured by IonWorks)
T1 construct: expressed in transfected cells
T1 sequence (Q15858 whole entry): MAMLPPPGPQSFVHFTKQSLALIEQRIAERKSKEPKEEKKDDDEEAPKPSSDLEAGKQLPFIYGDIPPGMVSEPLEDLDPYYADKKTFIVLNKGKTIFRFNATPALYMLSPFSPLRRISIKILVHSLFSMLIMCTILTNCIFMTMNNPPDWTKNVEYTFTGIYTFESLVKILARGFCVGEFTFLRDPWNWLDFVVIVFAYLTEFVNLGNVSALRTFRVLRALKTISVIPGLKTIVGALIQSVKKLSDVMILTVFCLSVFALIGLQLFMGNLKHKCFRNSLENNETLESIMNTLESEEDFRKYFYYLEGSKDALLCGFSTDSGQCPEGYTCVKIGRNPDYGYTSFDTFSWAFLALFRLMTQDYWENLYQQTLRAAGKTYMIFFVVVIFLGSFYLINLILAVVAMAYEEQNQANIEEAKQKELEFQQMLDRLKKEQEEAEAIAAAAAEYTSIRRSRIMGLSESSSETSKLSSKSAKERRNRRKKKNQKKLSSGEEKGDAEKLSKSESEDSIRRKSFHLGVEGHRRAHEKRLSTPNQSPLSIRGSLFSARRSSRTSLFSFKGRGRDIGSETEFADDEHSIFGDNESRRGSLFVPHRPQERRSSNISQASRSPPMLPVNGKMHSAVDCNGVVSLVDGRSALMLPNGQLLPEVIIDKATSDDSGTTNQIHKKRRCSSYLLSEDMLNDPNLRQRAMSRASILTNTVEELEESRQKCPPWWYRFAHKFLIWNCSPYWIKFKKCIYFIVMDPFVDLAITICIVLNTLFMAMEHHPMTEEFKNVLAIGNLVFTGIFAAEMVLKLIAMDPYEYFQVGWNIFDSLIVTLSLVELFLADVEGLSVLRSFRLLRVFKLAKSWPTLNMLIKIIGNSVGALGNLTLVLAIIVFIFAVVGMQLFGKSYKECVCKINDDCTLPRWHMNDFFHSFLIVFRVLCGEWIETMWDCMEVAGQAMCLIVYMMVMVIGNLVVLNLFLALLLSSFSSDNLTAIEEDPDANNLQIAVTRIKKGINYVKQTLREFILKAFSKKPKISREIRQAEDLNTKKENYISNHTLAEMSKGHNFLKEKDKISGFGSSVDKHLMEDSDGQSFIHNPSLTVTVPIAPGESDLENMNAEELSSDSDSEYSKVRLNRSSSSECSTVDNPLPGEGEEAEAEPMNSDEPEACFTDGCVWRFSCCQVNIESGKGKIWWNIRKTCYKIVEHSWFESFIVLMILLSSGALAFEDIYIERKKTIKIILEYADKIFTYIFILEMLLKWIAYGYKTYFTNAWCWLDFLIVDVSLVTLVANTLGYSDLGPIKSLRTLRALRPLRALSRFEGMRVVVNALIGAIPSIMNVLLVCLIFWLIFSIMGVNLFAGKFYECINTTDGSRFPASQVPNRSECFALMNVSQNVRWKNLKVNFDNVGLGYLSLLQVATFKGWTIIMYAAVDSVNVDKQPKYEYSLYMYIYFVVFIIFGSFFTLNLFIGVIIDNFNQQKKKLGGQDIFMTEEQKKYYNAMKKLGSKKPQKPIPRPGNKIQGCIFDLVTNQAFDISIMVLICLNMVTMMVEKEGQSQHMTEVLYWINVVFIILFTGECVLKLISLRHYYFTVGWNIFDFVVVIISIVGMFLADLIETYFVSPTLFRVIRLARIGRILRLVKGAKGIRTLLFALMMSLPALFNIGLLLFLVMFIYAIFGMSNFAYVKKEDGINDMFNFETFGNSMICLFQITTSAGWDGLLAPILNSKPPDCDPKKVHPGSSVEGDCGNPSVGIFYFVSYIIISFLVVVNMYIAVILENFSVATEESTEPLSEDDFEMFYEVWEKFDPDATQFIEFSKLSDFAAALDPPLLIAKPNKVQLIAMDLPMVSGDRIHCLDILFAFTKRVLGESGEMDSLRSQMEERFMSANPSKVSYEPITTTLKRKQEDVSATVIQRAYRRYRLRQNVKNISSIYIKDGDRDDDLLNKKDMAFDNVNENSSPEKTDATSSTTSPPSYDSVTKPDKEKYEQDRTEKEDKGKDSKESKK
Procedure: (§1) Compounds were tested on human Nav1.7 and Nav1.5 channels stably expressed in HEK 293 cells. […] Cells were sealed on a planar substrate using the Population Patch Plate (PPC) technology. Electrical access was obtained using both nystatin and amphotericin. A double-pulse protocol was used for the determination of IC50 values for inactivated state block. Nav1.7 and Nav1.5 expressing cells were voltage clamped at −100 mV and −110 mV, respectively. A depolarizing prepulse to −10 mV (Nav1.7) or −30 mV (Nav1.5) for 1000 ms followed by a 10 ms repolarization to −100 mV (Nav1.7) or −110 mV (Nav1.5) was given to generate fractional channel inactivation of ˜50%, followed by a 10 ms test pulse to −10 mV (Nav1.7) or −30 mV (Nav1.5) to measure peak current in control conditions and after compound addition. The following recording solutions were used (mM). External: 150 NaCl, 2 CaCl2, 5 KCl, 1 Mg Cl2, 10 HEPES, 12 Dextrose; internal: 120 CsF, 30 CsCl, 10 EGTA, 5 HEPES, 5 NaF, 2 MgCl2.
(§2) For all electrophysiology experiments, offline analysis was used to determine percent inhibition as a function of drug concentration. IC50 values were determined by fitting to the Hill equation.
(§3) The various compounds in Examples 1 through 4 and Tables 1 through 3 exemplified above were assayed for activity and selectivity using the foregoing IonWorks® technique. The results are reported in the following paragraph in a format expressing the identification of the compound with reference Example and compound (e.g. Ex 1-1 is Example 1, compound 1) followed by the observed potency in nM and the ratio of Nav1.7 potency:Nav 1.5 potency as described here. […]

[2] = molecular target: T2, human Nav1.5 channels stably expressed in HEK 293 cells (Homo sapiens, UniProt Q14524); experiment: IonWorks Quattro automated patch-clamp, Nav1.5 (selectivity ratio versus Nav1.7); type: cell-based; conditions: selectivity for Nav1.7 over Nav1.5, inactivated state block
T2 construct: expressed in transfected cells
T2 sequence (Q14524 whole entry): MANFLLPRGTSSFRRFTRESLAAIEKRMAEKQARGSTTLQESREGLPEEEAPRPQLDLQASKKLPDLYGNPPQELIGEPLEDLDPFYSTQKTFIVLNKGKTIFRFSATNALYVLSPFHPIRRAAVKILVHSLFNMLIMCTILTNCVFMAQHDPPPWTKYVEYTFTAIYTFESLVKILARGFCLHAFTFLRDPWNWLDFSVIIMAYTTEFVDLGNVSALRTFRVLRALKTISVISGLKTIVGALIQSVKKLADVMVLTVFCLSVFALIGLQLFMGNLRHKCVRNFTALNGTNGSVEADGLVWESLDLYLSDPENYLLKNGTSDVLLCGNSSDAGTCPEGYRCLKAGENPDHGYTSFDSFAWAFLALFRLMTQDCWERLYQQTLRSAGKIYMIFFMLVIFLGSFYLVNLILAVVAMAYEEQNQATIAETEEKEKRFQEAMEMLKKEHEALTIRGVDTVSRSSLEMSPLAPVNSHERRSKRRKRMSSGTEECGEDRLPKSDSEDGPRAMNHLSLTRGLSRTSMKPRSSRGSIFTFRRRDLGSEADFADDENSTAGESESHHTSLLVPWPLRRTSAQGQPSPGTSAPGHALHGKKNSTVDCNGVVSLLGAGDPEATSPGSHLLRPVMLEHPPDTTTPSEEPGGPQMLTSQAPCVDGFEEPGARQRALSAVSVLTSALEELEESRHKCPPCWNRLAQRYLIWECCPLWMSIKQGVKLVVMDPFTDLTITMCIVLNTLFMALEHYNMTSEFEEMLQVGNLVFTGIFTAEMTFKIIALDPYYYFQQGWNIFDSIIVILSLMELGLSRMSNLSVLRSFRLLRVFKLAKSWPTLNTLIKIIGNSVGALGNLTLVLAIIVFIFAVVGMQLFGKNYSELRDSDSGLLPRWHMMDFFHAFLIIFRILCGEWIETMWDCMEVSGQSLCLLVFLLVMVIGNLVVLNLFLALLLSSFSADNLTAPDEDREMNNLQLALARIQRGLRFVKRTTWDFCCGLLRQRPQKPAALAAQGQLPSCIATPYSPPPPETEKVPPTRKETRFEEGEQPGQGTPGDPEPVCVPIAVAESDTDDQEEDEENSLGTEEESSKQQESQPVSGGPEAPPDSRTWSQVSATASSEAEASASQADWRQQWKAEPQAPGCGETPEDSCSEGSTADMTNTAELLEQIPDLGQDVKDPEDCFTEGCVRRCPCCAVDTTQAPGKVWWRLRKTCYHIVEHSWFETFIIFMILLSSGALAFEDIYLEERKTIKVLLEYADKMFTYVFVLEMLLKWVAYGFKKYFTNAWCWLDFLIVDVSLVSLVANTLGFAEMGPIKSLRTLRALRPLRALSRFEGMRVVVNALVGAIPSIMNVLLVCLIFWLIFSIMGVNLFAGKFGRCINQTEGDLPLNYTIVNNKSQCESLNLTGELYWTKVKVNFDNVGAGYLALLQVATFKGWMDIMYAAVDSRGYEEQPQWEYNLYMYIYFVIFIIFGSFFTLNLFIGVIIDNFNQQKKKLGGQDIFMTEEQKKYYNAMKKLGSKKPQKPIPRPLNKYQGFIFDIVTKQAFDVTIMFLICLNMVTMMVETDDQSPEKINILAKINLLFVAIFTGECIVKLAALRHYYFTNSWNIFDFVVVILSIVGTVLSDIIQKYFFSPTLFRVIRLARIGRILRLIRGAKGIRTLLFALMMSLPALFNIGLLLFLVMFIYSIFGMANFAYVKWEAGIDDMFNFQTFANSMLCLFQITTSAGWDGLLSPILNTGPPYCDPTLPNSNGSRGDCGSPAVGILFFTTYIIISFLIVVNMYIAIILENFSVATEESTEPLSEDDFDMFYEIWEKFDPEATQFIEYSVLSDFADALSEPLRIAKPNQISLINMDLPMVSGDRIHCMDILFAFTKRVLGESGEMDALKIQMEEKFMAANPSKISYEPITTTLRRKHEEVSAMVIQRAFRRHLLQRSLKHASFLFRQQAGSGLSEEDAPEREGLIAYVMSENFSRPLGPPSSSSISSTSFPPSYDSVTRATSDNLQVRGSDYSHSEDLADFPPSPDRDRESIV
Procedure: as §1, §2, §3

SMILES	pIC50 [1]	ratio of Nav1.7 potency:Nav 1.5 potency [2]
Cc1cc(S(=O)(=O)Nc2ncc(F)s2)c(F)cc1NCCCCNCC1(O)CNC1 [EX 1-4, 2-fluoro-N-(5-fluoro-1,3-thiazol-2-yl)-4-[(4-{[(3-hydroxyazetidin-3-yl)methyl]amino}butyl)amino]-5-methylbenzenesulfonamide]	7.41	≥ 846
Cc1csc(NS(=O)(=O)c2cc(Cl)c(NCCCCNCC3(O)CNC3)cc2F)n1 [EX 1-9, 5-chloro-2-fluoro-4-[(4-{[(3-hydroxyazetidin-3-yl)methyl]amino}butyl)amino]-N-(4-methyl-1,3-thiazol-2-yl)-benzenesulfonamide]	7.26	≥ 600
NC[C@H](O)CNCCCCNc1cc(F)c(S(=O)(=O)Nc2ncns2)cc1Br [EX 1-7, 4-[(4-{[(2S)-3-amino-2-hydroxypropyl]-amino}butyl)amino]-5-bromo-2-fluoro-N-1,2,4-thiadiazol-5-yl-benzenesulfonamide]	8.15	≥ 4714
NCC1(O)CN(CCCCNc2cc(F)c(S(=O)(=O)Nc3ncns3)cc2Br)C1 [EX 1-11, 4-((4-(3-(aminomethyl)-3-hydroxyazetidin-1-yl)butyl)amino)-5-bromo-2-fluoro-N-(1,2,4-thiadiazol-5-yl)benzenesulfonamide]	8.18	≥ 5000

More lines, main results first:

pIC50 [1]	SMILES	ratio of Nav1.7 potency:Nav 1.5 potency [2]
7.57	NC[C@@H](CO)NCCCCNc1cc(F)c(S(=O)(=O)Nc2ncns2)cc1Cl [EX 2-37, 4-[(4-{[(1S)-2-amino-1-(hydroxymethyl)ethyl]amino}butyl)amino]-5-chloro-2-fluoro-N-1,2,4-thiadiazol-5-ylbenzenesulfonamide]	≥ 1222
7.85	O=S(=O)(Nc1ncc(F)s1)c1cc(Cl)c(NCCCCNCC2(O)CNC2)cc1F [EX 2-6, 5-chloro-2-fluoro-N-(5-fluoro-1,3-thiazol-2-yl)-4-[(4-{[(3-hydroxyazetidin-3-yl)methyl]amino}butyl)amino] benzenesulfonamide]	≥ 2357
7.00	CC1(O)CN[C@H](CNCCCCNc2cc(F)c(S(=O)(=O)Nc3nccs3)cc2Cl)C1 (stereo partly drawn) [EX 3-1, 5-chloro-2-fluoro-4-((4-((((2S)-4-hydroxy-4-methylpyrrolidin-2-yl)methyl)amino)butyl)amino)-N-(thiazol-2-yl)benzenesulfonamide]	≥ 330
7.54	NC[C@H](CO)NCCCCNc1cc(F)c(S(=O)(=O)Nc2ncns2)cc1Cl [EX 2-41]	≥ 655
7.60	O=S(=O)(Nc1ncns1)c1cc(Br)c(NCCCCN[C@@H]2CNC[C@H]2O)cc1F [EX 2-44, 5-bromo-2-fluoro-4-((4-(((3R,4R)-4-hydroxypyrrolidin-3-yl)amino)butyl)amino)-N-(1,2,4-thiadiazol-5-yl)benzenesulfonamide]	≥ 1300
7.62	NC[C@@H](CO)NCCCCNc1cc(F)c(S(=O)(=O)Nc2ncc(F)s2)cc1Cl [EX 2-36, 4-[(4-{[(1S)-2-amino-1-(hydroxymethyl)ethyl]amino}butyl)amino]-5-chloro-2-fluoro-N-(5-fiuoro-1,3-thiazol-2-yl)benzenesutfonamide]	≥ 1375
7.80	O=S(=O)(Nc1ncns1)c1cc(Cl)c(NCCCCNCC2(O)CNC2)cc1F [EX 2-1, 5-chloro-2-fluoro-4-[(4-{[(3-hydroxyazetidin-3-yl)methyl]amino}butyl)amino]-N-1,2,4-thiadiazol-5-ylbenzenesulfonamide]	≥ 2063
7.46	O=S(=O)(Nc1ncns1)c1cc(Cl)c(NCCCCNCCNCCO)cc1F [EX 2-4, 5-chloro-2-fluoro-4-{[4-({2-[(2-hydroxyethyl)amino]ethyl}amino)butyl]amino}-N-1,2,4-thiadiazol-5-ylbenzenesulfonamide]	≥ 943
